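Tested at 5 concentrations; 48 h exposure; 96-well plates; endpoints linearly interpolated, else capped at highest concentration. At the GI50, growth is halved. The concentration for full growth arrest is given as TGI.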
Assays:
Test in all cases: NCI-60 cell line screen, 48 h
[1] = system: PC-3 prostate
[2] = system: HT29 colon
[3] = system: HOP-92 NSCLC
[4] = system: HS 578T breast
[5] = system: T-47D breast
[6] = system: U251 CNS
[7] = system: IGROV1 ovarian
[8] = system: COLO 205 colon
[9] = system: NCI-H460 lung
[10] = system: SN12C renal
[11] = system: UACC-257 melanoma
[12] = system: MDA-MB-435
[13] = system: SW-620 colon
[14] = system: HL-60(TB) leukemia
[15] = system: 786-0 renal
[16] = system: M14 melanoma
[17] = system: BT-549 breast
[18] = system: MDA-MB-231 breast
[19] = system: ACHN renal
[20] = system: K-562 leukemia
[21] = system: RXF 393 renal
[22] = system: HCT-116 colon
[23] = system: HOP-62 NSCLC
[24] = system: OVCAR-4 ovarian
[25] = system: A498 renal
[26] = system: SK-OV-3 ovarian
[27] = system: NCI-H226 lung
[28] = system: SF-539 CNS
[29] = system: SK-MEL-2 melanoma
[30] = system: SNB-19 CNS
[31] = system: LOX IMVI melanoma
[32] = system: SNB-75 CNS
[33] = system: OVCAR-5 ovarian
[34] = system: UO-31 renal
[35] = system: A549 NSCLC
[36] = system: DU-145 prostate
[37] = system: RPMI-8226 leukemia
[38] = system: SK-MEL-5 melanoma
[39] = system: CCRF-CEM leukemia
[40] = system: SK-MEL-28 melanoma
[41] = system: MCF7 breast
[42] = system: HCT-15 colon
[43] = system: SF-268 CNS
[44] = system: NCI-H23 lung
[45] = system: OVCAR-3 ovarian
[46] = system: NCI/ADR-RES ovarian
[47] = system: OVCAR-8 ovarian
[48] = system: TK-10 renal
[49] = system: UACC-62 melanoma
[50] = system: KM12 colon
[51] = system: CAKI-1 renal
[52] = system: MOLT-4 leukemia
[53] = system: SF-295 CNS
[54] = system: MALME-3M melanoma
[55] = system: NCI-H522 lung
[56] = system: EKVX NSCLC

COc1ccc(/C=C2\N=C(SC)N(C)C2=O)cc1 showed a TGI [1] of over 100 µM, a TGI [2] of over 100 µM and a TGI [3] of over 100 µM. It also gave a TGI [4] of 90.4 µM, a TGI [5] of over 100 µM and a TGI [6] of over 100 µM. It also gave a TGI [7] of over 100 µM, a TGI [8] of over 100 µM and a TGI [9] of over 100 µM. It also gave a TGI [10] of over 100 µM, a TGI [11] of over 100 µM and a TGI [12] of over 100 µM. The TGI [13] was over 100 µM, the TGI [14] was over 100 µM and the TGI [15] was over 100 µM. It also gave a TGI [16] of over 100 µM, a TGI [17] of over 100 µM and a TGI [18] of over 100 µM. The TGI [19] was over 100 µM, the TGI [20] was over 100 µM and the TGI [21] was over 100 µM. For the same compound, the TGI [22] was over 100 µM, the TGI [23] was over 100 µM and the TGI [24] was over 100 µM. For the same compound, the TGI [25] was over 100 µM, the TGI [26] was over 100 µM and the TGI [27] was over 100 µM. For the same compound, the TGI [28] was over 100 µM, the TGI [29] was over 100 µM and the TGI [30] was over 100 µM. The TGI [31] was over 100 µM, the TGI [32] was over 100 µM and the TGI [33] was over 100 µM. For the same compound, the TGI [34] was over 100 µM, the TGI [35] was over 100 µM and the TGI [36] was over 100 µM. It also gave a TGI [37] of over 100 µM, a TGI [38] of over 100 µM and a TGI [39] of over 100 µM. The TGI [40] was over 100 µM, the TGI [41] was over 100 µM and the TGI [42] was over 100 µM. For the same compound, the TGI [43] was over 100 µM, the TGI [44] was over 100 µM and the TGI [45] was over 100 µM. The TGI [46] was over 100 µM, the TGI [47] was over 100 µM and the TGI [48] was over 100 µM. It also gave a TGI [49] of over 100 µM.

CN1C(=O)/C(=C/c2c(Cl)[nH]c3ccccc23)c2ccccc21 showed a GI50 [1] of 29.5 µM, a TGI [1] of over 100 µM and a GI50 [2] of 25.5 µM. It also gave a TGI [2] of 98.5 µM, a GI50 [50] of 2.05 µM and a TGI [50] of 10.1 µM. It also gave a GI50 [3] of 37 µM, a TGI [3] of over 100 µM and a GI50 [4] of 28.9 µM. The TGI [4] was 72.9 µM, the GI50 [5] was 22.5 µM and the TGI [5] was 71.2 µM. For the same compound, the GI50 [51] was 29.8 µM, the TGI [51] was 89.5 µM and the GI50 [6] was 40.4 µM. The TGI [6] was over 100 µM, the GI50 [52] was 41.8 µM and the TGI [52] was over 100 µM. It also gave a GI50 [53] of 25.9 µM, a TGI [53] of 85.5 µM and a GI50 [7] of 37.6 µM. It also gave a TGI [7] of over 100 µM, a GI50 [8] of 18.1 µM and a TGI [8] of 34.9 µM. The GI50 [9] was 46.7 µM, the TGI [9] was over 100 µM and the GI50 [10] was 77.2 µM. It also gave a TGI [10] of over 100 µM, a GI50 [11] of over 100 µM and a TGI [11] of over 100 µM. The GI50 [12] was 23.8 µM, the TGI [12] was 59.9 µM and the GI50 [13] was 35.8 µM. It also gave a TGI [13] of over 100 µM, a GI50 [14] of 32.6 µM and a TGI [14] of 93.4 µM. For the same compound, the GI50 [15] was 32.4 µM, the TGI [15] was over 100 µM and the GI50 [16] was 19.8 µM. It also gave a TGI [16] of 65.8 µM, a GI50 [17] of 37.4 µM and a TGI [17] of 94.3 µM. For the same compound, the GI50 [18] was 39 µM, the TGI [18] was over 100 µM and the GI50 [19] was 32.9 µM. For the same compound, the TGI [19] was over 100 µM, the GI50 [21] was 53.4 µM and the TGI [21] was over 100 µM. It also gave a GI50 [22] of 25.9 µM, a TGI [22] of 87.8 µM and a GI50 [23] of 31.3 µM. It also gave a TGI [23] of over 100 µM, a GI50 [24] of 52.3 µM and a TGI [24] of over 100 µM. The GI50 [26] was 25.8 µM, the TGI [26] was 67.1 µM and the GI50 [27] was 48.3 µM. It also gave a TGI [27] of over 100 µM, a GI50 [28] of 33 µM and a TGI [28] of 75.6 µM. The GI50 [29] was 45.1 µM, the TGI [29] was over 100 µM and the GI50 [30] was 35.4 µM. The TGI [30] was over 100 µM, the GI50 [54] was 25.5 µM and the TGI [54] was over 100 µM. It also gave a GI50 [31] of 43.3 µM, a TGI [31] of over 100 µM and a GI50 [33] of 55.9 µM. It also gave a TGI [33] of over 100 µM, a GI50 [34] of 37.1 µM and a TGI [34] of over 100 µM. The GI50 [35] was 79.7 µM, the TGI [35] was over 100 µM and the GI50 [55] was 21.4 µM. The TGI [55] was 80.1 µM, the GI50 [36] was 89.5 µM and the TGI [36] was over 100 µM. For the same compound, the GI50 [37] was 24.1 µM, the TGI [37] was over 100 µM and the GI50 [56] was 75.2 µM. The TGI [56] was over 100 µM, the GI50 [38] was 14.6 µM and the TGI [38] was 51.2 µM. It also gave a GI50 [39] of 29 µM, a TGI [39] of over 100 µM and a GI50 [40] of 35 µM. It also gave a TGI [40] of over 100 µM, a GI50 [41] of 53.7 µM and a TGI [41] of over 100 µM. The GI50 [42] was 34.1 µM, the TGI [42] was over 100 µM and the GI50 [43] was 66.7 µM. For the same compound, the TGI [43] was over 100 µM, the GI50 [44] was 38.2 µM and the TGI [44] was over 100 µM. It also gave a GI50 [45] of 22.6 µM, a TGI [45] of 58.7 µM and a GI50 [46] of 25.5 µM. The TGI [46] was 61.2 µM, the GI50 [47] was 63.4 µM and the TGI [47] was over 100 µM. For the same compound, the GI50 [48] was 14 µM, the TGI [48] was 46.2 µM and the GI50 [49] was 37.4 µM. For the same compound, the TGI [49] was over 100 µM.

Reference: PubChem BioAssay (NCI)
